Values quoted from earlier work in patent publication US20230134521A1, “COMPOUNDS FOR METHODS FOR PROMOTING FEMALE REPRODUCTIVE HEALTH THROUGH MEDIATION OF RENIN ANGIOTENSIN FUNCTION” (priority 2021, published 2023).
Ends that are not written are not given here.

What was measured:
[1] = test system: rabbit clitoral cavernosal and vaginal smooth muscle strips; settings: organ bath; for relaxation of clitoral and vaginal smooth muscle: female rabbit clitoral (cavernosal) and vaginal smooth muscle
[2] = test system: pre-menopausal women with SIAD related disorders (hypoactive sexual desire disorder)
[3] = test system: female sexual health, performance or libido; settings: doses administered to women

Molecule	relaxation of clitoral and vaginal smooth muscle [1]	improvement to sexual health, performance or libido in women [3]	other results
N=C(N)NCCC[C@H](N)C(=O)O [L-arginine]	–	–	relaxation of clitoral cavernosal smooth muscle strips in response to NO donors ([1]; rabbit clitoral cavernosal smooth muscle strips): enhanced relaxation
CCCc1nn(C)c2c(=O)[nH]c(-c3cc(S(=O)(=O)N4CCN(C)CC4)ccc3OCC)nc12 [sildenafil]	dose-dependent relaxation	–	–
O=c1[nH]c2ccccc2n1CCN1CCN(c2cccc(C(F)(F)F)c2)CC1 [Flibanserin, 2H-benzimidazol-2-one, 1,3-dihydro-1-[2-[4-[3(tri-fluoromethyl)phenyl]-1-piperazinyl]ethyl]]	–	–	share of women in whom the benefit was seen ([2]; 100 mg daily for a minimum of 28 days): 18%; therapeutic effect on Genitopelvic Pain/Penetration Disorder (vestibulodynia, dyspareunia) or Female Orgasmic Disorder ([2]; human, in vivo): no therapeutic effect at all; median placebo-corrected increase in satisfying sexual events (SSEs) ([2]; median baseline about 2-3 SSEs per month, over a six month period): 0.5-1.0 SSEs per month
CCCc1nn(C)c2c(=O)[nH]c(-c3cc(S(=O)(=O)N4CCN(C)CC4)ccc3OCC)nc12 [Viagra]	–	without improvement	–
CCCc1nc(C)c2c(=O)[nH]c(-c3cc(S(=O)(=O)N4CCN(CC)CC4)ccc3OCC)nn12 [Levitra]	–	without improvement	–
vasoactive intestinal polypeptide (HSDAVFTDNYTRLRKQMAVKKYLNSILN; ends and bridges not checked; UniProt P01282 125-152, looked up) [VIP, nonadrenergic/noncholinergic neurotransmitter]	dose-dependent relaxation	–	–
